Source: PubChem BioAssay (NCI)
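How tested: cells in 96-well plates exposed to compound for 48 hours at five concentrations. TGI marks complete inhibition of growth.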 Where a SMILES comes first, the peptide text is derived from it. [ ]: non-standard residue; d: D form. The star is where a group is joined. ξ: configuration not given here. ξPhe(4-NO2) = NC(Cc1ccc([N+](=O)[O-])cc1)C(=O)O; Boc = CC(C)(C)OC(=O)*; OBn = c1ccc(CO*)cc1

Key:
Assay in all cases: growth of human tumour cells (NCI), 48 h
[1] = system: K-562 leukemia
[2] = system: NCI-H226 lung
[3] = system: SW-620 colon
[4] = system: A549 NSCLC
[5] = system: IGROV1 ovarian
[6] = system: NCI-H460 lung
[7] = system: OVCAR-5 ovarian
[8] = system: 786-0 renal
[9] = system: RPMI-8226 leukemia
[10] = system: UACC-62 melanoma
[11] = system: HL-60(TB) leukemia
[12] = system: RXF 393 renal

Compound: Cc1[nH]n(-c2nc3c(c(=O)[nH]2)CCC3)c(=O)c1CCO
- TGI [1]: > 100 µM
- TGI [2]: > 100 µM
- TGI [3]: > 100 µM
- TGI [4]: > 100 µM
- TGI [5]: > 100 µM
- TGI [6]: > 100 µM
- TGI [7]: > 100 µM
- TGI [8]: > 100 µM
- TGI [9]: > 100 µM
- TGI [10]: > 100 µM
- TGI [11]: > 100 µM
- TGI [12]: > 100 µM

Compound: CCOC(=O)C1=C(O)c2ccccc2C(=O)C1=O
- TGI [1]: > 100 µM
- TGI [2]: > 100 µM
- TGI [3]: > 100 µM
- TGI [4]: > 100 µM
- TGI [5]: > 100 µM
- TGI [6]: > 100 µM
- TGI [7]: > 100 µM
- TGI [8]: > 100 µM
- TGI [9]: > 100 µM
- TGI [10]: > 100 µM
- TGI [11]: > 100 µM
- TGI [12]: > 100 µM

Compound: N#CC1=C(C#N)/C(=C(\C#N)C(C#N)C#N)N=C1N
- TGI [1]: > 100 µM
- TGI [2]: 97.3 µM
- TGI [3]: > 100 µM
- TGI [4]: 54.9 µM
- TGI [5]: > 100 µM
- TGI [6]: > 100 µM
- TGI [7]: > 93.9 µM
- TGI [8]: > 100 µM
- TGI [9]: > 81.3 µM
- TGI [10]: 30.3 µM
- TGI [11]: 39.1 µM
- TGI [12]: > 100 µM

Compound: CC(C)(C)OC(=O)NC(Cc1ccc([N+](=O)[O-])cc1)C(=O)NCC(=O)OCc1ccccc1 (centres undefined) (Boc-[ξPhe(4-NO2)]-Gly-OBn)
- TGI [1]: 52.3 µM
- TGI [2]: 67.8 µM
- TGI [3]: > 100 µM
- TGI [4]: > 100 µM
- TGI [5]: > 100 µM
- TGI [6]: 49.4 µM
- TGI [7]: > 100 µM
- TGI [8]: 33.8 µM
- TGI [9]: 45.9 µM
- TGI [10]: 32 µM
- TGI [11]: > 100 µM
- TGI [12]: 53.1 µM

Compound: CC(=O)c1c(O)ccc2c1CC(CC=O)O2 (centres undefined)
- TGI [1]: > 100 µM
- TGI [2]: > 100 µM
- TGI [3]: > 100 µM
- TGI [4]: > 100 µM
- TGI [5]: > 100 µM
- TGI [6]: > 100 µM
- TGI [7]: > 100 µM
- TGI [8]: > 100 µM
- TGI [9]: > 100 µM
- TGI [10]: > 100 µM
- TGI [11]: > 100 µM
- TGI [12]: > 100 µM

Compound: Cn1cnc2c(OCC3CCCCC3)nc(N)nc21
- TGI [1]: > 100 µM
- TGI [2]: > 100 µM
- TGI [3]: > 100 µM
- TGI [4]: > 100 µM
- TGI [5]: > 100 µM
- TGI [6]: > 100 µM
- TGI [7]: > 100 µM
- TGI [8]: > 100 µM
- TGI [9]: > 100 µM
- TGI [10]: > 100 µM
- TGI [11]: > 100 µM
- TGI [12]: > 100 µM

Compound: Cn1c(=O)c2c(nc(C[N+]3([O-])CCOCC3)n2C)n(C)c1=O
- TGI [1]: > 100 µM
- TGI [2]: > 100 µM
- TGI [3]: > 100 µM
- TGI [4]: > 100 µM
- TGI [5]: > 100 µM
- TGI [6]: > 100 µM
- TGI [7]: > 100 µM
- TGI [8]: > 100 µM
- TGI [9]: > 100 µM
- TGI [10]: > 100 µM
- TGI [11]: > 100 µM
- TGI [12]: > 100 µM
